# Results: PubChem BioAssay AID256 (DTP/NCI, 2004)
# Several values for one entry are separate records, joined by “and”; a condition that tells them apart may be missing. Equal entries are not always repeated. Toxic doses and inconclusive results are not listed.
# System: CD2F1 mice, L1210 leukemia ip, survival T/C
# Test: NCI In Vivo Anticancer Drug Screen. Data for tumor model L1210 Leukemia (intraperitoneal) in CD2F1 (CDF1) mice
# Conditions: higher = longer survival
# In short: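 Each value reflects a quotient of treated over vehicle control outcomes in mice with a transplanted tumor.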
# [1] = endpoint: mean survival time, dose: 100.0 mg/kg/injection, schedule: Q01DX001 (ip), vehicle: saline with Tween-80
# [2] = endpoint: mean survival time, dose: 400.0 mg/kg/injection, schedule: Q01DX001 (ip), vehicle: saline with Tween-80
# [3] = endpoint: mean survival time, dose: 100.0 mg/kg/injection, schedule: Q01DX009 (ip), vehicle: saline with Tween-80
# [4] = endpoint: mean survival time, dose: 100.0 mg/kg/injection, schedule: Q04DX003 (ip), vehicle: saline with Tween-80
# [5] = endpoint: mean survival time, dose: 200.0 mg/kg/injection, schedule: Q01DX001 (ip), vehicle: saline with Tween-80
# [6] = endpoint: mean survival time, dose: 200.0 mg/kg/injection, schedule: Q01DX009 (ip), vehicle: saline with Tween-80
# [7] = endpoint: mean survival time, dose: 200.0 mg/kg/injection, schedule: Q04DX003 (ip), vehicle: saline with Tween-80
# [8] = endpoint: mean survival time, dose: 400.0 mg/kg/injection, schedule: Q01DX009 (ip), vehicle: saline with Tween-80
# [9] = endpoint: mean survival time, dose: 400.0 mg/kg/injection, schedule: Q04DX003 (ip), vehicle: saline with Tween-80
# [10] = endpoint: mean survival time, dose: 12.5 mg/kg/injection, schedule: Q01DX009 (ip), vehicle: saline with Tween-80
# [11] = endpoint: mean survival time, dose: 25.0 mg/kg/injection, schedule: Q01DX009 (ip), vehicle: saline with Tween-80
# [12] = endpoint: mean survival time, dose: 50.0 mg/kg/injection, schedule: Q01DX009 (ip), vehicle: saline with Tween-80
# [13] = endpoint: mean survival time, dose: 100.0 mg/kg/injection, schedule: Q04DX002 (ip), vehicle: saline with Tween-80
# [14] = endpoint: mean survival time, dose: 200.0 mg/kg/injection, schedule: Q04DX002 (ip), vehicle: saline with Tween-80
# [15] = endpoint: mean survival time, dose: 400.0 mg/kg/injection, schedule: Q04DX002 (ip), vehicle: saline with Tween-80
# [16] = endpoint: mean survival time, dose: 100.0 mg/kg/injection, schedule: Q01DX001 (ip), vehicle: saline
# [17] = endpoint: mean survival time, dose: 400.0 mg/kg/injection, schedule: Q01DX001 (ip), vehicle: saline
smiles,measurement,setting,value
O=C1C(=O)N(CNC(c2ccccc2)c2ccccc2)c2ccccc21,T/C,[1],101 % of control
same,T/C,[2],86 % of control
CS(=O)(=O)c1ccncc1,T/C,"endpoint: mean survival time, dose: 100.0 mg/kg/injection, schedule: Q04DX003 (ip), vehicle: saline sonified",95 % of control
same,T/C,"endpoint: mean survival time, dose: 200.0 mg/kg/injection, schedule: Q04DX003 (ip), vehicle: saline sonified",98 % of control
O=[P+](O)O[P+](=O)O.O=[P+](O)O[P+](=O)O.O=[P+](O)O[P+](=O)O.O=[P+](O)O[P+](=O)O.[Pt].[Pt],T/C,"endpoint: median survival time, dose: 3.12 mg/kg/injection, schedule: Q04DX003 (ip), vehicle: saline",98 % of control
same,T/C,"endpoint: median survival time, dose: 6.25 mg/kg/injection, schedule: Q04DX003 (ip), vehicle: saline",98 % of control
same,T/C,"endpoint: median survival time, dose: 12.5 mg/kg/injection, schedule: Q04DX003 (ip), vehicle: saline",96 % of control
same,T/C,"endpoint: median survival time, dose: 25.0 mg/kg/injection, schedule: Q04DX003 (ip), vehicle: saline",98 % of control
same,T/C,"endpoint: median survival time, dose: 50.0 mg/kg/injection, schedule: Q04DX003 (ip), vehicle: saline",105 % of control
Cc1c(O)ccc([N+](=O)[O-])c1O,T/C,"endpoint: mean survival time, dose: 12.5 mg/kg/injection, schedule: Q04DX003 (ip), vehicle: saline with Tween-80",107 % of control
same,T/C,"endpoint: mean survival time, dose: 25.0 mg/kg/injection, schedule: Q04DX003 (ip), vehicle: saline with Tween-80",102 % of control
C[n+]1csc2ccccc21,T/C,[1],104 % of control
same,T/C,[3],105 % of control
same,T/C,[4],103 % of control
same,T/C,[5],98 % of control
same,T/C,[6],105 % of control
same,T/C,[7],103 % of control
same,T/C,[2],104 % of control
same,T/C,[8],103 % of control
same,T/C,[9],105 % of control
O=NN(CCF)C(=O)NC1CCC(NC(=O)N(CCF)N=O)CC1 (stereo unspecified),T/C,"endpoint: mean survival time, dose: 3.13 mg/kg/injection, schedule: Q01DX009 (ip), vehicle: saline with Tween-80",117 % of control
same,T/C,[10],240 % of control
same,T/C,[11],273 % of control and 289 % of control
same,T/C,[12],234 % of control
CCOC(=O)Nc1ccc2nnn(C3OC(CO)C(O)C3O)c2n1 (stereo unspecified),T/C,"endpoint: mean survival time, dose: 12.5 mg/kg/injection, schedule: Q01DX005 (ip), vehicle: water",94 % of control
same,T/C,"endpoint: mean survival time, dose: 25.0 mg/kg/injection, schedule: Q01DX005 (ip), vehicle: water",102 % of control
same,T/C,"endpoint: mean survival time, dose: 50.0 mg/kg/injection, schedule: Q01DX005 (ip), vehicle: water",98 % of control
same,T/C,"endpoint: mean survival time, dose: 100.0 mg/kg/injection, schedule: Q01DX005 (ip), vehicle: water",102 % of control
same,T/C,"endpoint: mean survival time, dose: 200.0 mg/kg/injection, schedule: Q01DX005 (ip), vehicle: water",94 % of control
same,T/C,"endpoint: mean survival time, dose: 400.0 mg/kg/injection, schedule: Q01DX005 (ip), vehicle: water",94 % of control
CSc1nc(NC2OCC(O)C(O)C2O)c(Br)c(=O)n1C (stereo unspecified),T/C,"endpoint: median survival time, dose: 12.5 mg/kg/injection, schedule: Q01DX005 (ip), vehicle: saline with Tween-80",98 % of control
same,T/C,"endpoint: median survival time, dose: 25.0 mg/kg/injection, schedule: Q01DX005 (ip), vehicle: saline with Tween-80",100 % of control
same,T/C,"endpoint: median survival time, dose: 50.0 mg/kg/injection, schedule: Q01DX005 (ip), vehicle: saline with Tween-80",101 % of control
same,T/C,"endpoint: median survival time, dose: 100.0 mg/kg/injection, schedule: Q01DX005 (ip), vehicle: saline with Tween-80",102 % of control
same,T/C,"endpoint: median survival time, dose: 200.0 mg/kg/injection, schedule: Q01DX005 (ip), vehicle: saline with Tween-80",98 % of control
CC(CCc1ccc(S(=O)(=O)Cl)cc1)c1ccc(S(=O)(=O)Cl)cc1 (stereo unspecified),T/C,[12],106 % of control
same,T/C,[3],95 % of control
same,T/C,[6],91 % of control
CS(=O)(=O)OCC(OS(C)(=O)=O)C(OS(C)(=O)=O)C(OS(C)(=O)=O)C(COS(C)(=O)=O)OS(C)(=O)=O (stereo unspecified),T/C,"endpoint: mean survival time, dose: 12.5 mg/kg/injection, schedule: Q01DX009 (ip), vehicle: Klucel (hydroxypropylcellulose) (HPC)",101 % of control
same,T/C,"endpoint: mean survival time, dose: 25.0 mg/kg/injection, schedule: Q01DX009 (ip), vehicle: Klucel (hydroxypropylcellulose) (HPC)",104 % of control
same,T/C,"endpoint: mean survival time, dose: 50.0 mg/kg/injection, schedule: Q01DX009 (ip), vehicle: Klucel (hydroxypropylcellulose) (HPC)",101 % of control
C=CCC(C)(C#N)C1C=CCC1 (stereo unspecified),T/C,[3],105 % of control
same,T/C,[4],102 % of control
same,T/C,[6],102 % of control
same,T/C,[7],100 % of control
same,T/C,[8],103 % of control
same,T/C,[9],93 % of control
CC1=C(/C=C/C(=O)O)C(C)(C)CCC1,T/C,[13],92 % of control
same,T/C,[14],96 % of control
same,T/C,[15],92 % of control
CC1=Cc2ccc(C)cc2C(=O)C1=O,T/C,"endpoint: mean survival time, dose: 1.56 mg/kg/injection, schedule: Q04DX002 (ip), vehicle: saline with Tween-80",117 % of control
same,T/C,"endpoint: mean survival time, dose: 3.13 mg/kg/injection, schedule: Q04DX002 (ip), vehicle: saline with Tween-80",106 % of control
Nn1c2ccccc2c2ccccc21,T/C,"endpoint: mean survival time, dose: 75.0 mg/kg/injection, schedule: Q01DX001 (ip), vehicle: saline",98 % of control
same,T/C,"endpoint: mean survival time, dose: 150.0 mg/kg/injection, schedule: Q01DX001 (ip), vehicle: saline",106 % of control
c1ccc2c[n+]3ccccc3cc2c1,T/C,"endpoint: mean survival time, dose: 12.5 mg/kg/injection, schedule: Q04DX003 (ip), vehicle: saline",97 % of control
same,T/C,"endpoint: mean survival time, dose: 25.0 mg/kg/injection, schedule: Q04DX003 (ip), vehicle: saline",98 % of control
Nc1[nH]c(=O)ncc1C(=O)NC(CO)C(=O)O (stereo unspecified),T/C,"endpoint: mean survival time, dose: 6.25 mg/kg/injection, schedule: Q01DX009 (ip), vehicle: saline with Tween-80",100 % of control
same,T/C,[10],102 % of control
same,T/C,[11],104 % of control
Cc1cc(C)cc(OCCOCCOc2cc(C)cc(C)c2)c1,T/C,[4],94 % of control
same,T/C,[7],97 % of control
same,T/C,[9],100 % of control
CCOC(=O)c1ccc(NC(N)=S)cc1,T/C,"endpoint: mean survival time, dose: 50.0 mg/kg/injection, schedule: Q01DX009 (ip), vehicle: other",98 % of control
same,T/C,"endpoint: mean survival time, dose: 100.0 mg/kg/injection, schedule: Q01DX009 (ip), vehicle: other",95 % of control
same,T/C,"endpoint: mean survival time, dose: 200.0 mg/kg/injection, schedule: Q01DX009 (ip), vehicle: other",95 % of control
same,T/C,"endpoint: mean survival time, dose: 400.0 mg/kg/injection, schedule: Q01DX009 (ip), vehicle: other",91 % of control
CCOC(=N)CNC(=O)c1ccccc1,T/C,[13],105 % of control
same,T/C,[14],98 % of control
same,T/C,[15],98 % of control
O=[N+]([O-])c1ccc(N/N=C(\CCl)c2ccccc2)c([N+](=O)[O-])c1,T/C,[1],92 % of control
same,T/C,[5],97 % of control
same,T/C,[2],92 % of control
COc1cccc2c1CCC1(O)OC(=O)CC21 (stereo unspecified),T/C,[16],98 % of control
same,T/C,"endpoint: mean survival time, dose: 200.0 mg/kg/injection, schedule: Q01DX001 (ip), vehicle: saline",98 % of control
same,T/C,[17],95 % of control
CC1(C)COCN1COC1CCCCC1,T/C,"endpoint: mean survival time, dose: 12.5 mg/kg/injection, schedule: Q01DX009 (ip), vehicle: suspension in saline",95 % of control
same,T/C,"endpoint: mean survival time, dose: 25.0 mg/kg/injection, schedule: Q01DX009 (ip), vehicle: suspension in saline",100 % of control
same,T/C,"endpoint: mean survival time, dose: 50.0 mg/kg/injection, schedule: Q01DX009 (ip), vehicle: suspension in saline",103 % of control
same,T/C,"endpoint: mean survival time, dose: 100.0 mg/kg/injection, schedule: Q01DX009 (ip), vehicle: suspension in saline",108 % of control
same,T/C,"endpoint: mean survival time, dose: 200.0 mg/kg/injection, schedule: Q01DX009 (ip), vehicle: suspension in saline",105 % of control
Cc1ccc(S(=O)(=O)OC2CCCCC2c2cccc(Cl)c2)cc1 (stereo unspecified),T/C,"endpoint: mean survival time, dose: 75.0 mg/kg/injection, schedule: Q01DX001 (ip), vehicle: other",92 % of control
same,T/C,"endpoint: mean survival time, dose: 150.0 mg/kg/injection, schedule: Q01DX001 (ip), vehicle: other",88 % of control
same,T/C,"endpoint: mean survival time, dose: 300.0 mg/kg/injection, schedule: Q01DX001 (ip), vehicle: other",101 % of control
O=C(Nc1ccccc1Cl)Nc1ccccc1Cl,T/C,[13],90 % of control
same,T/C,[14],94 % of control
same,T/C,[15],94 % of control
NC1(C(=O)O)CCCC1.[Zn+2],T/C,[16],100 % of control
same,T/C,[17],120 % of control
CC(C)(O)C1OCC(C2CCC3(C)C4=CCC5C(C)(C)C(O)CCC5(C)C4CCC23C)CC1O (stereo unspecified),T/C,"endpoint: mean survival time, dose: 2.5 mg/kg/injection, schedule: Q01DX009 (ip), vehicle: Klucel (hydroxypropylcellulose) (HPC)",94 % of control
same,T/C,"endpoint: mean survival time, dose: 5.0 mg/kg/injection, schedule: Q01DX009 (ip), vehicle: Klucel (hydroxypropylcellulose) (HPC)",103 % of control
same,T/C,"endpoint: mean survival time, dose: 10.0 mg/kg/injection, schedule: Q01DX009 (ip), vehicle: Klucel (hydroxypropylcellulose) (HPC)",88 % of control
